Consider 2 molecules from patent US20250361271A1, “PEPTIDE AGONIST” (THE UNIVERSITY OF BIRMINGHAM, priority 2022, published 2025).

Where two headings read alike, the source gives them in different places. Where a SMILES comes first, the peptide text is derived from it. [ ]: non-standard residue; d: D form. pGlu = O=C1CC[C@@H](C(=O)O)N1

Series [1] deals with PBLs on cytokine stimulated HDBECs.
Procedure: Blood samples were obtained from consensual healthy donors and were collected in EDTA tubes (Sigma-Aldrich). […] 5 ml of blood was layered on top of the density gradient, and was centrifuged at 2500 rpm for 45 minutes. […] The PBMCs were washed twice for 7 minutes at 1500 rpm. Peripheral blood lymphocytes (PBLs) were isolated via panning PBMCs onto a culture flask for 30 minutes at 37° C., allowing monocytes to adhere.
HDBECS defrosted at 37° C. in a 25 cm^2 cell culture flask in 10 ml of media were dissociated using EDTA (Sigma-Aldrich) and Trypsin (Gibco) and seeded on 10 wells in a 12-well tissue culture plates (Falcon) and left to adhere at 37° C. After 24 hours, confluent endothelial layers were cytokine stimulated using 100 U/ml TNF-α (Sigma-Aldrich) and 10 ng/ml IFN-γ (Peprotech) for 24 hours at 37° C. The peptide treatment of the 1×10^6 cells/ml PBLs consisted of adding the peptides immediately before use. […] 1×10^6 PBLs were added to each well and incubated at 37° C., allowing PBLs to adhere to migrate across the endothelium. […] Cells were then fixed with 2% glutaraldehyde for 10 minutes and then imaged using phase-contrast microscopy via an inverted bright-field microscope at 20× magnification.
Imaging of the PBL migration assay was carried out using ImagePro 7 software (Media Cybernetics). Surface adherent cells were categorised as being phase-bright, and transmigrated cells were categorised as phase-dark with altered morphology, appearing as being under the endothelial layer. Images were taken at 5 different fields of each well, and an average of counted adherent and migrated PBLs was calculated.
The same methods described for the in vitro transmigration assay and analysis were used, and PBL transmigration was calculated as a percentage of adherent cells. Peptides were added to the PBLs at concentrations ranging from 0.0001-500 ng/ml on the cytokine stimulated HDBECs and the resulting PBL transmigration (as a percentage of adherent cells) was plotted as a function of log10 of the peptide concentration.
The peptides were added at concentration of 20 ng/ml and run alongside untreated PBL (PBL0) and scrambled protein to analyse their effects on adhesion and transmigration.
The nature of the next series: T1/2 in plasma (mouse). Conditions: mouse, plasma; 1 μM peptide, 37° C. The series is classed as in vitro ADME. An excerpt: Take all measurements in duplicate.
For series [2] the following is noted: human, plasma.
Procedure: Store at −20° C. or on ice. • 2) Thaw the plasma and spin in a centrifuge at 1500×g for 10 minutes at room temperature. • 3) Prepare stock solution of the peptide at 10 mM in dimethyl sulfoxide (DMSO) or phosphate buffered saline (PBS) and dilute solutions by adding 3 μL of 10 mM stock to 297 μL DMSO or PBS (100 µM stock for a final 1 μM concentration). • 4) Add 550 μL plasma to an incubation tube and separately add 5 μL of peptide stock solution to an incubation tube. Warm the incubation tubes (5 minutes, 37° C., with shaking). • 5) After warming, add 495 μL of warmed plasma to warmed peptide (time=0). Mix well and shake the tube containing the mixed sample (37° C., 1500×g). • 6) At 2, 5, 15, 30, 45 and 60 minutes after contacting the peptide and plasma, collect 40 μL of the sample into pre-prepared quench tubes. • 7) Analyse the sample at each time point by mass spectrometry. Take all measurements in duplicate.
The samples were analysed and the T1/2 values were calculated by XenoGesis. The T1/2 values correspond to the time taken for the concentration of the peptide in the blood or plasma to be reduced by 50%.
In series [3] the test system is primary murine calvarial osteoblasts. Nature of the series: Alkaline phosphatase activity, murine osteoblasts. The series is classed as cell-based, mouse. Conditions: 10 ng/ml peptide, 4 days, vs untreated cells, FIG. 5a. The procedure:
Skin was removed from around calvaria using forceps, and the calvaria was dissected out and cleaned of any contaminating tissue. Calvaria were added to αMEM media supplemented with 1 mg/ml of collagenase d (Roche, Basel, Switzerland, COLLD-RO). Tubes were then agitated at 37° C. for 10 minutes and the media discarded. αMEM media supplemented with 1 mg/ml of collagenase d was again added to calvaria and shaken at 37° C. for 30 minutes. Media (containing cells) was then removed and kept on ice. The calvaria were then again shaken at 37° C. for 10 minutes in 1.5 ml of αMEM media supplemented with 5 μM EDTA (Sigma-Aldrich, E7889) and the cell containing media transferred to the sample on ice, pooling the cells. […] Cells on ice were then spun down at 300 g for 4 minutes, resuspended in 1 ml of Basal media and counted using a haemocytometer. […] Mineralisation was assessed by quantifying the level of alkaline phosphate (ALP) activity (absorbance at 405 nm) per condition normalized to the absorbance generated by the untreated control (control on the graph). […] The plate was wrapped in foil and left to run for 45 minutes at 37° C. in an incubated shaker (SciQuip; Shropshire, UK) before being quantified using a Synergy HT plate reader (BioTek) with absorbance set at 405 nm.

For series [4], the system named is primary human osteoblasts. Description: Alkaline phosphatase activity, human osteoblasts. The series is classed as cell-based. Conditions: 10 ng/ml peptide, 4 days, vs untreated cells, FIG. 5a. The procedure:
Human osteoarthritis subchondral joint tissue was obtained at the time of total knee and hip joint replacement operations from the Royal Orthopaedic Hospital (Birmingham). To isolate primary osteoblasts, cartilage was removed from the femoral condyles and tibial plateaus and cut into 2 mm^2 pieces. Samples were kept in media and cleaned of fat. Media contains DMEM (Sigma, D6546), FCS (10%), GPS (1%), Non-essential amino acid (1%; Sigma, M7145), β10 glycerophosphate (2 mM; Sigma, G9422) and L-Ascorbic acid (50 μg/ml; Sigma, A5960). Bone chips were placed in T75 flasks in 10 mL of media, replacing media every 2-3 days. […]
Osteoblasts (8×10^3 cells/well) were cultured in mineralisation differentiation media in the presence or absence of peptide (10 ng/ml) for 4 days. Mineralisation was assessed by quantifying the level of alkaline phosphate (ALP) activity (absorbance at 405 nm) per condition normalized to the absorbance generated by the untreated control (control on the graph).
To measure ALP activity, cells were washed in PBS before being lysed in 100 μl of RIPA buffer (Thermo Fisher, R^0278) for 15 minutes on ice. […] The plate was wrapped in foil and left to run for 45 minutes at 37° C. in an incubated shaker (SciQuip; Shropshire, UK) before being quantified using a Synergy HT plate reader (BioTek) with absorbance set at 405 nm.

As for `C[C@H](NC(=O)CNC(=O)[C@@H]1CCC(=O)N1)C(=O)O` [SEQ ID NO. 21, pEGA] ([pGlu]-Gly-Ala-OH), in series [1], inhibition was half-maximal at 0.12 nM (IC50). The “% Inhibition (3 nM)” value in series [1] (3 nM peptide, inhibition of PBL transmigration (as a percentage of adherent cells)) is reported as 41.20%. The half-life (in “T1/2 in plasma (mouse)”; in series [2]) was above 3 h throughout.
Consider “ELSNEER [SEQ ID NO. 47, reference compound]”, for which the “ALP activity (mineralisation), murine osteoblasts” value in series [3] is recorded as “did not exhibit a statistically significant change in osteoblast activity”. Besides, the “ALP activity (mineralisation), human osteoblasts” value in series [4] is listed as “did not exhibit a statistically significant change in osteoblast activity”.
